Results: PMC8066402 (The AAPS journal, 2020)

Target: T1, Monocarboxylate transporter 1 (MCT1) (Mus musculus, UniProt P53986)
T1 sequence (P53986 1-493): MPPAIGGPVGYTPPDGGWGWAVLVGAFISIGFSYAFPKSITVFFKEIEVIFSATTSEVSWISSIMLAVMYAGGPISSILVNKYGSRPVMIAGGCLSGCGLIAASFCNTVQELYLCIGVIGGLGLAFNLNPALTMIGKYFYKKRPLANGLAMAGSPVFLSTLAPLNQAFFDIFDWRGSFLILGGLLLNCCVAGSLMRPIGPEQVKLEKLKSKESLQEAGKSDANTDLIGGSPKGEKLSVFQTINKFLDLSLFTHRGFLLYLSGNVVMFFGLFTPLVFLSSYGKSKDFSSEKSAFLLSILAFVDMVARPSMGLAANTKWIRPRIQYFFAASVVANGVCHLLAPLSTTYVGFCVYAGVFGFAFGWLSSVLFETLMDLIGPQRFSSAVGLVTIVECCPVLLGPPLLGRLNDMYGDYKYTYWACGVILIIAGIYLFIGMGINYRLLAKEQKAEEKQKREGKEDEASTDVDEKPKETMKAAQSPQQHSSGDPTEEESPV
T1 sequence (P18572 22-389 partner): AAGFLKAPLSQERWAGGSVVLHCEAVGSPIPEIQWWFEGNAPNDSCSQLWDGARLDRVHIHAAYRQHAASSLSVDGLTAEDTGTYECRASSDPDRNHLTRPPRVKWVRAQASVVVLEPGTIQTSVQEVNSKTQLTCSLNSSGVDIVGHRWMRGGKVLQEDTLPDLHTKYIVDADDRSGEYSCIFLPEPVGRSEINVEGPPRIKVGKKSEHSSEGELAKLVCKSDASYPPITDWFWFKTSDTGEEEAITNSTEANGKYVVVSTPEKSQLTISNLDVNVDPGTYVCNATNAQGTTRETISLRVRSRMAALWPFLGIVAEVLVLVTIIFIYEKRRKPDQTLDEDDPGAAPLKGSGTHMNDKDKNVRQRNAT
Experiment: inhibition of radiolabeled L-lactate uptake in 4T1 cells
Assay type: cell-based

Q: How did the IC50 turn out when `Cc1[nH]nc(C(F)(F)F)c1Cc1sc2c(c1C(=O)N1C[C@](C)(O)CO1)c(=O)n(C)c(=O)n2C(C)C` [AZD3965] was run?
A: 1.7e-05 ± 3.6e-06 mM

Q: `N#C/C(=C\c1ccc(O)cc1)C(=O)O` [CHC, α-cyano-4-hydroxycinnamic acid] was tested. Which IC50 did it give?
A: 7.57 ± 15.2 mM
